A word on the pIC50: it is −log10 of the IC50, conventionally taken in molar units. Low values mean a high IC50, high ones a low IC50. One may read the ED50 as the dose at which the effect has come halfway, by size or by number of responders.

pIC50: −log10 of the molar value. Like-named read-outs stand apart in the source and are kept apart here.

Experiment [1] addresses T1, NR1/NR2B receptor (Rattus norvegicus, UniProt P35439+Q00960).
T1 construct: the obtained solution was used as a membrane preparation for the experiment; from tissue; host or cells: rat cerebral cortex membrane preparation
Kind of experiment: Experiment of binding to NMDA receptor: competitive binding with [3H]-Ifenprodil, rat cerebral cortex membrane preparation. The settings on record: [3H]-Ifenprodil 5 nM, GBR-12909 3 μM, rat cerebral cortex membranes. The protocol:
Experiment of Binding to NMDA Receptor
Competitive binding assays of the test compounds (10, 18 and 19) were carried out using Ifenprodil, which is an antagonist specific for the NR1/NR2B subtype receptor, as a ligand.
(§1) Male Slc: Wistar rats were killed by beheading, the brains were picked out and the cerebral cortex was fractionated. The cerebral cortex was homogenized with ice-cooled 50 mM Tris-HCl buffer (pH 7.4) in an amount 20 times of the cerebral cortex and centrifuged at 4° C. and 27,500×g for 10 minutes. The obtained precipitate was suspended with the same buffer solution and again centrifuged. These steps were repeated three times and the obtained precipitate was suspended with the buffer solution and stored at −80° C. Immediately before the experiment, the stored suspension was thawed at room temperature and centrifuged at 4° C. and 27,500×g for 10 minutes and the obtained precipitate was suspended with the buffer solution. Further the resulting solution was diluted 10 times with the buffer solution and the obtained solution was used as a membrane preparation for the experiment.
For the binding experiment, 10 μL of test compounds with different concentrations, 10 μL of [^3H]-Ifenprodil, and 10 μL GBR-12909 were added to 470 μL of the above-mentioned membrane preparation and incubated at icing temperature for 120 minutes. The final concentration of [^3H]-Ifenprodil was adjusted to be 5 nM and the final concentration of GBR-12909 was adjusted to be 3 μM. DMSO, which is a solvent, was used for measurement of the total binding quantity and 100 μM of Ifenprodil was used for measurement of the non-specific binding quantity. In this connection, GBR-12909 was added to block the binding of [^3H]-Ifenprodil to the non-polyamine-sensitive site. After the incubation, the bounded bodies and the free bodies were separated by Whatman GF/C filter paper (Whatman Inc.) and the filter paper was washed four times with 2.5 mL of the ice-cooled buffer solution. The filter paper was immersed in a liquid scintillation (Clear-Sol I, Nacalai Tesque Co., Ltd.) in a vial and the radioactivity (dpm) was measured by a liquid scintillation counter. The binding inhibition ratio (%) was calculated from the measured values according to the following equation and the dose for inhibiting 50% binding (IC50) was calculated.
(§2) Binding inhibition ratio (%)=100−[(binding quantity in the presence of the test compound−non-specific binding quantity)/(total binding quantity−non-specific binding quantity)]×100

Another experiment deals with PCP receptor. Kind of experiment: Experiment of binding to PCP receptor: competitive binding with [3H] MK-801, rat cerebral cortex membrane preparation. The settings on record: for pIC50: [3H] MK-801 2 nM, rat cerebral cortex membranes. The protocol:
Experiment of Binding to PCP Receptor
MK-801 is reported to bind to PCP receptor and cause psychosis.
as §1, with “were used and after beheading of the rats,” for “were killed by beheading,”, “ice-cooled 5” for “ice-cooled 50”, “(pH 7.8)” for “(pH 7.4)”, “times as much” for “times of the cerebral cortex”, “diluted 2.5” for “diluted 10”
For the binding experiment, 10 μL of test compounds with different concentrations and 10 μL of marked ligand [^3H] MK-801 were added to 480 μL of the above-mentioned membrane preparation sample and incubated at 25° C. for 60 minutes. The final concentration of [^3H] MK-801 was adjusted to be 2 nM. DMSO, which is a solvent, was used for measurement of the total binding quantity and 10 μM of (+)MK-801 was used for measurement of the non-specific binding quantity. After the incubation, the bonded bodies and the free bodies were separated by Whatman GF/C filter paper (manufactured by Whatman Inc.) and the filter paper was washed four times with 2.5 mL of the ice-cooled buffer solution. The filter paper was immersed in a liquid scintillation in a vial (Clear-Sol I, manufactured by Nacalai Tesque Co., Ltd.) and the radiation dose (dpm) was measured by a liquid scintillation counter. The binding inhibition ratio (%) was calculated from the measured values according to the following equation and the dose for inhibiting 50% binding (IC50) was calculated.
as §2

Another experiment concerns ICR type male mice. The experiment in a line: Analgesic effect in mouse formalin test. Format: in vivo. The settings on record: for ED50: Mus musculus, injected into the vein 5 minutes before 2% formalin. Here is the method:
Analgesic Effect in Mouse Formalin Test
The pain behavior attributed to formalin can be classified into two time-dependent phases and mice show pain behaviors, so-called licking and biting. In the first phase, acute pain was caused within 5 minutes immediately after formalin administration, and in the second phase, inflammatory pain was caused for 20 minutes from 10 to 30 minutes after the administration. ICR type male mice (5-week old) were used for the experiment. Formalin (2%) was subcutaneously injected to the right hind paw of the mice. The test compound (18) was dissolved in a solution, DMSO:HCO50:saline=1.5:1:7.5 and injected in difference concentrations into the vein 5 minutes before the formalin administration. The pain behavior time was measured for 30 minutes after formalin administration. The pain behavior time is to be shortened in the case the test compound causes analgesic effect. The measured time is substituted in the following equation to calculate the analgesic ratio (%) and the dose for 50% efficacy (ED50) was calculated. Analgesic ratio (%)=[…]

For the next experiment, the target named is NR1/NR2D receptor (Mus musculus, UniProt P35438+Q03391). Kind of experiment: Electric physiological experiment: NMDA-induced inward current in Xenopus laevis oocytes expressing NMDA receptor subunits. The settings on record: NMDA 100 μM and glycine 10 μM, -60 mV. It is filed as cell-based. The protocol: (§3) Expression and Electric Physiological Experiment of NMDA Receptor
Chain of NR1/NR2D receptor (Q03391 28-1323, other chains not shown): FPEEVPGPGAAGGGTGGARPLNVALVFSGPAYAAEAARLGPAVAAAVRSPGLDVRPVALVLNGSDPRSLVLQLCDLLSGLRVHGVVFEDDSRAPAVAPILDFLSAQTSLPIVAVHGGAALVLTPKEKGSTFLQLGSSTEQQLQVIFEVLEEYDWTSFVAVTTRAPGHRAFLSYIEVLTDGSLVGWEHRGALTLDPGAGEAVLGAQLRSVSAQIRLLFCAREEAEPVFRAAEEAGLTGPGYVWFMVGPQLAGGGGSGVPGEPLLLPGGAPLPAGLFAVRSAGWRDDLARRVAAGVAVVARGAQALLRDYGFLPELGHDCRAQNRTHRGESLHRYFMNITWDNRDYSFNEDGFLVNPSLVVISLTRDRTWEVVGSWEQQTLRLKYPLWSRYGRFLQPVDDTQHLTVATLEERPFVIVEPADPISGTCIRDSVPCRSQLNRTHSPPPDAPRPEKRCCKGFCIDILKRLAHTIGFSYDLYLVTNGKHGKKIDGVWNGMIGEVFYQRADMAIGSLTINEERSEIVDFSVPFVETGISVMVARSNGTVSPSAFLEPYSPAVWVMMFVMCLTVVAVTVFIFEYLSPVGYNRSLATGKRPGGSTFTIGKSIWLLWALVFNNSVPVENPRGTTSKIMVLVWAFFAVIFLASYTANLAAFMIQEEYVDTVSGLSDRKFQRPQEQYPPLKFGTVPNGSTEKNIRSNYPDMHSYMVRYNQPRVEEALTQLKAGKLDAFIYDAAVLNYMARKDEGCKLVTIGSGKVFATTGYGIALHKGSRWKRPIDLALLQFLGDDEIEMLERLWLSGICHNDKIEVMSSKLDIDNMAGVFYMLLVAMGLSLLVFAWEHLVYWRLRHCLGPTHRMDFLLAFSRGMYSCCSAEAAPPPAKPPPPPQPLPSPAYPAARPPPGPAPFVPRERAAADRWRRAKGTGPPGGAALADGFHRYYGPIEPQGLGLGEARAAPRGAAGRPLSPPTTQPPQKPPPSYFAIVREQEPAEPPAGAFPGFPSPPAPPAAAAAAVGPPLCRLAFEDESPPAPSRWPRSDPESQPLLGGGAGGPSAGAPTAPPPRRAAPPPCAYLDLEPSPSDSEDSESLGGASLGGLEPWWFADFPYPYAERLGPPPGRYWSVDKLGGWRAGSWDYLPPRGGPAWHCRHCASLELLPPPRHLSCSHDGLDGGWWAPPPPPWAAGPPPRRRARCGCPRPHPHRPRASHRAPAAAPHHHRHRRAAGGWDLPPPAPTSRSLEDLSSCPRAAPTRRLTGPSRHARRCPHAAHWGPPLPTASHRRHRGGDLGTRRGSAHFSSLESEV
(§4) Messenger RNA (mRNA) was transcribed with complementary DNA (cDNA) of mouse NMDA receptor subunits and the mRNA was injected in oocytes of Xenopus Laevis. From two days after the injection, the inward current induced by NMDA was recorded by two electrode membrane potential fixation apparatus. The injection amount of the mRNA was 0.6/0.6 ng on the basis of NR1/NR2B per one oocyte to co-expression of the subunits. Solutions of the test compound (18) with different concentrations were added to the oocytes and the inward current induced by NMDA was recorded by two electrode membrane potential fixation apparatus. The extercellular solution was Mg^2+-free ND96 (NaCl 96 mM, KCl 2 mM, CaCl2 1.8 mM, and Hepes 5 mM and pH=7.5) and the potential was retained at −60 mV. The NMDA current was induced by using NMDA 100 μM and glycine 10 μM. The measured values of the recorded inward current induced by NMDA were substituted in the following equation to calculate the electric response % and the dose for inhibiting 50% (IC50) were calculated. The IC50 values for the respective NR1/NR2A, C, and D receptors were calculated. Electric response (%)=(inward current induced by NMDA in the presence of the test compound/inward current induced by NMDA in the absence of the test compound)×100

A further experiment has as its target NR1/NR2A receptor (Mus musculus, UniProt P35436+P35438). Described as above. It is filed as cell-based. The conditions noted are these: NMDA 100 μM and glycine 10 μM, -60 mV. Here is the method:
as §3, §4

For another experiment, the target named is NR1/NR2C receptor (Mus musculus, UniProt P35438+Q01098). The experiment is described as above. It is filed as cell-based. The settings on record: NMDA 100 μM and glycine 10 μM, -60 mV. Here is the method: as §3, §4
For experiment [2], the target named is NR1/NR2B receptor (Mus musculus, UniProt P35438+Q01097). The description is as above. It is filed as cell-based. Here is the method:
as §3, §4

T1 sequence (Q00960 27-1482, other chains not shown): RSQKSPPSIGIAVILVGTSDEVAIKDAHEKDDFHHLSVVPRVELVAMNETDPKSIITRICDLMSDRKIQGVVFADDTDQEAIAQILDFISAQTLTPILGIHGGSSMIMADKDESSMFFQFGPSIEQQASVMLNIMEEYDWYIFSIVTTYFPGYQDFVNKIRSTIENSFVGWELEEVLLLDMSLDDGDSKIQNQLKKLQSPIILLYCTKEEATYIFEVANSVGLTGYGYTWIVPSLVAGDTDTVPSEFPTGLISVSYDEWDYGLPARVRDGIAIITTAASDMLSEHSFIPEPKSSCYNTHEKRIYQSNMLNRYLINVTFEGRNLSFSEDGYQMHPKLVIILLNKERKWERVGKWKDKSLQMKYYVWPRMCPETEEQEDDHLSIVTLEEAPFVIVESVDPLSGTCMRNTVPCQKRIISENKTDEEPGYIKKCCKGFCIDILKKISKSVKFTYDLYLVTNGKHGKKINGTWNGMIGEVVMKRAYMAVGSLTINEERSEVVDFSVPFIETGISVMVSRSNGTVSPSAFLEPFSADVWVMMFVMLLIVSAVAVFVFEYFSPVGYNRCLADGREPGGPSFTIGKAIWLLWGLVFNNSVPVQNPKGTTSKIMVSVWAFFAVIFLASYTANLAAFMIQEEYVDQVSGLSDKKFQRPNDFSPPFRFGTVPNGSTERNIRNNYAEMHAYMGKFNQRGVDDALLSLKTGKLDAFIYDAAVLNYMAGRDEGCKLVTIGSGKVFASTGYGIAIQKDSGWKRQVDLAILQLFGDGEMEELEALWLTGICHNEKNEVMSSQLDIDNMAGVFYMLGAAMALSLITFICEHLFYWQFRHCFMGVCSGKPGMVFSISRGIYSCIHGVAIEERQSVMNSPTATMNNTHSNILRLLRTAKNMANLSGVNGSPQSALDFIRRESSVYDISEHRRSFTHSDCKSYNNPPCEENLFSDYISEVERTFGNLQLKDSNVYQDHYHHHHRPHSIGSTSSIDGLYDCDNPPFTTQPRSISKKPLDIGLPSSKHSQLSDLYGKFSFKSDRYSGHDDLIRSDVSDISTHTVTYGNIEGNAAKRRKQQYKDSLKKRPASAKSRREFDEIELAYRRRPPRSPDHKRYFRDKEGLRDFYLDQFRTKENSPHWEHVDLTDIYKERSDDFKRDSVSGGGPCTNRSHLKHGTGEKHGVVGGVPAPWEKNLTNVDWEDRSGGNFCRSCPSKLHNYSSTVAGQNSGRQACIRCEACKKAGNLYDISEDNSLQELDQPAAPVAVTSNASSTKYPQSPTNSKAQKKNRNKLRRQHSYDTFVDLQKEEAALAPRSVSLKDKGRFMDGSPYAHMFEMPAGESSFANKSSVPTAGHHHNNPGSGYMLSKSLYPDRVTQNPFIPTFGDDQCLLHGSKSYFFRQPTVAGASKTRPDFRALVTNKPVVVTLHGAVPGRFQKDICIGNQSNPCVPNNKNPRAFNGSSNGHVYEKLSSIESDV
Chain of NR1/NR2B receptor (Mus musculus, UniProt P35438+Q01097) (Q01097 27-1482, other chains not shown): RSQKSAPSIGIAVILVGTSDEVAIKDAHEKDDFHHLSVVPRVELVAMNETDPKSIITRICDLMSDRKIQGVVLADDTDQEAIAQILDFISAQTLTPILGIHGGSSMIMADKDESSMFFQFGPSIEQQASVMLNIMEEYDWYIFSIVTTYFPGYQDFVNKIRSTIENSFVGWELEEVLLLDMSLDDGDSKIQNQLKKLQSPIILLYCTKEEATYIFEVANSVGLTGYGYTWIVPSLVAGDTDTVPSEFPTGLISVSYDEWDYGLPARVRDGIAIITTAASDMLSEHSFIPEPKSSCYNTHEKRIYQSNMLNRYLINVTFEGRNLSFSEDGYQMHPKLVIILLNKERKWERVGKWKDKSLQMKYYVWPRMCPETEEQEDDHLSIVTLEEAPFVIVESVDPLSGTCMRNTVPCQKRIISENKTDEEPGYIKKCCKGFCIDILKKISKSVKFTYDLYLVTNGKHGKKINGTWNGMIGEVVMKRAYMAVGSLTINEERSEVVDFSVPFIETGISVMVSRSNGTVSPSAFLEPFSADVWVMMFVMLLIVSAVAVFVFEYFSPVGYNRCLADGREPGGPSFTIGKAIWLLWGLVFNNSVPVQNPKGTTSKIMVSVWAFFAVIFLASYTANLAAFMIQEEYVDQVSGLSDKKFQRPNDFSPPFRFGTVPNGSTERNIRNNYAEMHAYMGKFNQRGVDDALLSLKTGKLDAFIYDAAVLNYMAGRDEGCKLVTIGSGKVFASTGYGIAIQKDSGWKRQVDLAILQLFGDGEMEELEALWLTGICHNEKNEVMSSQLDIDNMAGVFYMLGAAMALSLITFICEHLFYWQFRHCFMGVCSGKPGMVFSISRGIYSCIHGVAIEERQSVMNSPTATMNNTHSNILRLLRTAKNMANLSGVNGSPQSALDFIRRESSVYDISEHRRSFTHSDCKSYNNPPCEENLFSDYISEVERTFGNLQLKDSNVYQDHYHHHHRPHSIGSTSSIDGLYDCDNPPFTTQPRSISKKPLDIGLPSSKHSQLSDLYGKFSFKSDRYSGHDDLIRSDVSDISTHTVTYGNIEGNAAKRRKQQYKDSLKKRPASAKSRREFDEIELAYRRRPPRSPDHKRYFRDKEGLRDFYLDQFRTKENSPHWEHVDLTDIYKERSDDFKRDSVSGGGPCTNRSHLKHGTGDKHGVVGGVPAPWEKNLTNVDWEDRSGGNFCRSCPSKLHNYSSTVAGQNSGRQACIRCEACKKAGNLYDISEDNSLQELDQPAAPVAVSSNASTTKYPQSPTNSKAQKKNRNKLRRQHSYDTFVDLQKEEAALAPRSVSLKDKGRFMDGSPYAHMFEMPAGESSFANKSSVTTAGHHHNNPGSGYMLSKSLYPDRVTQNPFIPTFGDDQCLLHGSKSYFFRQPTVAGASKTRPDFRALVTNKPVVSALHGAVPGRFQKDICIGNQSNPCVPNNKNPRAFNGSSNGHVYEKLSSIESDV

At NR1/NR2B receptor [1], `O=C(CCCN1CC=C(c2ccc(Cl)cc2)CC1)c1ccc(O)cc1` [Compound 32] had a pIC50 of 8.52.
`CC(C(O)c1ccc(O)cc1)N1CCC(O)(c2ccccc2)CC1` (racemic) [CP-101606, reference compound] showed a pIC50 on PCP receptor of 4.89.
In the case of `O=C(CCCN1CC=C(Cc2ccc(F)cc2)CC1)c1ccc(O)cc1` [Compound 19], the pIC50 at NR1/NR2B receptor [1] was 8.70. In addition, in the experiment on PCP receptor, the “competition with MK-801 at the PCP receptor (in words)” value (from here on “competition”) was “not competitive with MK-801” and the pIC50 was 5.00.
Compound `O=C(CCCN1CCC(O)(Cc2ccc(OC(F)(F)F)cc2)CC1)c1ccc(O)cc1` [Compound 10] had a pIC50 on NR1/NR2B receptor [1] of 7.80. Further, in the experiment with PCP receptor, the “competition” value is recorded as “not competitive with MK-801” and the pIC50 is 4.70.
As for `Cc1ccccc1CC1=CCN(CCCC(=O)c2ccc(O)cc2)CC1` [Compound 18], the pIC50 on NR1/NR2B receptor [1] is 8.40; at NR1/NR2D receptor, less than 4.52; at NR1/NR2A receptor it was less than 4.52; against NR1/NR2C receptor, less than 4.52; against NR1/NR2B receptor [2] (NMDA 100 μM and glycine 10 μM, -60 mV, Xenopus oocytes), 5.34; at PCP receptor, 5.52. The ED50 in the experiment with ICR type male mice (acute pain within 5 minutes, read-out: ED50, the first phase) was 1.1 mg/kg; in the experiment on ICR type male mice (inflammatory pain 10 to 30 minutes, read-out: ED50, the second phase) it was 0.7 mg/kg. The “analgesic effect (in words)” value in the experiment on ICR type male mice (mouse, in vivo) is reported as “confirmed”. In addition, the “antagonistic effect on NR1/NR2 subfamilies (in words)” value on NR1/NR2B receptor [2] is “specific antagonistic effect on the NR1/NR2B receptor”. Moreover, the “competition” value with PCP receptor is “not competitive with MK-801”.

Values taken from patent US7786140B2, “Piperidine derivative having NMDA receptor antagonistic activity” (Shionogi & Co., Ltd., priority 2003, dated 2010).
